Patent US20030166645A1, “Novel nitrofuran-containing heterocyclic compounds and uses thereof” (priority 2001, published 2003)
In brackets after ≈: the same amount, converted by molar mass.

Legend:
Test in all cases: Microdilution antimicrobial susceptibility test (MIC)
Format in all cases: cell-based
[1] = system: E coli; conditions: broth microdilution, 18-24 h, MIC = 90% inhibition of growth; for MIC: read-out: MIC E coli MIC2
[2] = system: E faecalis; conditions: broth microdilution, 18-24 h, MIC = 90% inhibition of growth; for MIC: read-out: MIC E faecalis MIC2
[3] = system: M. catarrhalis; conditions: broth microdilution, 18-24 h, MIC = 90% inhibition of growth; for MIC: Moraxella catarrhalis, read-out: MIC M. catarrhalis MIC2
[4] = system: S pneumoniae; conditions: broth microdilution, 18-24 h, CO2-enriched atmosphere, MIC = 90% inhibition of growth; for MIC: read-out: MIC S pneumoniae MIC6
[5] = system: S cerevisiae; conditions: broth microdilution, 18-24 h, MIC = 90% inhibition of growth; for MIC: read-out: MIC S cerevisiae MIC7
[6] = system: H influenzae; conditions: broth microdilution, 18-24 h, MIC = 90% inhibition of growth; for MIC: read-out: MIC H influenzae MIC4
[7] = system: S aureus; conditions: broth microdilution, 18-24 h, MIC = 90% inhibition of growth; for MIC: read-out: MIC S aureus MIC2
[8] = system: E coli (ImpA); conditions: broth microdilution, 18-24 h, MIC = 90% inhibition of growth; for MIC: read-out: MIC E coli (ImpA) MIC9
Experimental: Microdilution Antimicrobial Susceptibility Test Assay
Stock solutions of tested compounds were prepared in N,N-dimethylformamide (DMF) at a concentration of 5 mg/mL. Working solutions of the tested compounds were then prepared from the stock solutions, in Mueller-Hinton broth (MHB) with a starting concentration of 64 μg/mL.
Bacterial inocula were prepared from overnight culture (i.e., one fresh colony from agar plate in 5 ml MHB; H. influenzae was grown in MHB with the addition of yeast extract, haematin, and NAD), centrifuged 2×5 min/3000 rpm (for S. pneumoniae and H. influenzae, 2×10 min/3000 rpm), and dispensed in 5 ml of fresh MHB each time, such that the bacterial suspension is diluted to obtain 100 colony forming units (cfu) in a microplate well (100 μl total volume).
Microplate wells were filled with two-fold dilutions of test compound (50 Al), starting with 64 μg/ml. Wells were then filled with 50 μl of bacterial inoculum (final volume: 100 μl/well). The plates were incubated at 37° C. for 18-24 hours (S. pneumoniae was grown in a CO2-enriched atmosphere).

## Nn1c(S)nnc1-c1ccc([N+](=O)[O-])o1 [Compound 110]
[1]
  MIC: 16 µg/mL (≈ 70.4 µM)
[2]
  MIC: > 128 µg/mL
[3]
  MIC: 32 µg/mL (≈ 141 µM)
[4]
  MIC: 32 µg/mL (≈ 141 µM)
[5]
  MIC: 64 µg/mL (≈ 282 µM)
[6]
  MIC: 8 µg/mL (≈ 35.2 µM)
[7]
  MIC: 32 µg/mL (≈ 141 µM)

## Cn1c(SCCCO)nnc1-c1ccc([N+](=O)[O-])o1 [Compound 116, 5-[2-(5-Nitro)furyl]-4-methyl-4H-1,2,4-triazole-3-(3-hydroxypropyl)-thiol]
[1]
  MIC: 8 µg/mL (≈ 28.1 µM)
[2]
  MIC: 8 µg/mL (≈ 28.1 µM)
[8]
  MIC: 1 µg/mL (≈ 3.52 µM)
[3]
  MIC: 0.5 µg/mL (≈ 1.76 µM)
[4]
  MIC: 8 µg/mL (≈ 28.1 µM)
[5]
  MIC: > 64 µg/mL
[6]
  MIC: 16 µg/mL (≈ 56.3 µM)
[7]
  MIC: 8 µg/mL (≈ 28.1 µM)

## O=[N+]([O-])c1ccc(-c2nnc(S)[nH]2)o1 [Compound 117]
[1]
  MIC: > 64 µg/mL
[2]
  MIC: 32 µg/mL (≈ 151 µM)
[8]
  MIC: 16 µg/mL (≈ 75.4 µM)
[3]
  MIC: 2 µg/mL (≈ 9.43 µM)
[4]
  MIC: 2 µg/mL (≈ 9.43 µM)
[5]
  MIC: > 64 µg/mL
[6]
  MIC: 8 µg/mL (≈ 37.7 µM)
[7]
  MIC: 64 µg/mL (≈ 302 µM)

## O=[N+]([O-])c1ccc(-c2nnc(S)n2CCCN2CCOCC2)o1 [Compound 120]
[1]
  MIC E coli MIC2: >64 µg/mL
[2]
  MIC E faecalis MIC2: 64 µg/mL (≈ 189 µM)
[8]
  MIC E coli (ImpA) MIC9: 32 µg/mL (≈ 94.3 µM)
[3]
  MIC M. catarrhalis MIC2: 2 µg/mL (≈ 5.89 µM)
[4]
  MIC S pneumoniae MIC6: 16 µg/mL (≈ 47.1 µM)
[5]
  MIC S cerevisiae MIC7: 64 µg/mL (≈ 189 µM)
[6]
  MIC H influenzae MIC4: 16 µg/mL (≈ 47.1 µM)
[7]
  MIC S aureus MIC2: 64 µg/mL (≈ 189 µM)

## Cn1c(SCC#N)nnc1-c1ccc([N+](=O)[O-])o1 [Compound 121]
[1]
  MIC E coli MIC2: 8 µg/mL (≈ 30.2 µM)
[2]
  MIC E faecalis MIC2: 64 µg/mL (≈ 241 µM)
[8]
  MIC E coli (ImpA) MIC9: 2 µg/mL (≈ 7.54 µM)
[3]
  MIC M. catarrhalis MIC2: 1 µg/mL (≈ 3.77 µM)
[4]
  MIC S pneumoniae MIC6: 16 µg/mL (≈ 60.3 µM)
[5]
  MIC S cerevisiae MIC7: >64 µg/mL
[6]
  MIC H influenzae MIC4: 16 µg/mL (≈ 60.3 µM)
[7]
  MIC S aureus MIC2: 16 µg/mL (≈ 60.3 µM)

## CSc1nnc(-c2ccc([N+](=O)[O-])o2)n1C [Compound 124]
[1]
  MIC: 64 µg/mL (≈ 266 µM)
[2]
  MIC: 32 µg/mL (≈ 133 µM)
[8]
  MIC: 2 µg/mL (≈ 8.32 µM)
[3]
  MIC: 1 µg/mL (≈ 4.16 µM)
[4]
  MIC: 8 µg/mL (≈ 33.3 µM)
[5]
  MIC: 16 µg/mL (≈ 66.6 µM)
[6]
  MIC: 8 µg/mL (≈ 33.3 µM)
[7]
  MIC: 16 µg/mL (≈ 66.6 µM)

## CCn1c(S)nnc1-c1ccc([N+](=O)[O-])o1 [Compound 126]
[1]
  MIC: > 64 µg/mL
[2]
  MIC: 64 µg/mL (≈ 266 µM)
[3]
  MIC: 4 µg/mL (≈ 16.6 µM)
[4]
  MIC: 16 µg/mL (≈ 66.6 µM)
[5]
  MIC: > 64 µg/mL
[6]
  MIC: 32 µg/mL (≈ 133 µM)
[7]
  MIC: > 64 µg/mL

## Cn1c(SCc2ccncc2)nnc1-c1ccc([N+](=O)[O-])o1 [Compound 129]
[1]
  MIC E coli MIC2: 64 µg/mL (≈ 202 µM)
[2]
  MIC E faecalis MIC2: 64 µg/mL (≈ 202 µM)
[8]
  MIC E coli (ImpA) MIC9: 4 µg/mL (≈ 12.6 µM)
[3]
  MIC M. catarrhalis MIC2: 0.5 µg/mL (≈ 1.58 µM)
[4]
  MIC S pneumoniae MIC6: 16 µg/mL (≈ 50.4 µM)
[5]
  MIC S cerevisiae MIC7: >64 µg/mL
[6]
  MIC H influenzae MIC4: 16 µg/mL (≈ 50.4 µM)
[7]
  MIC S aureus MIC2: 16 µg/mL (≈ 50.4 µM)

## C=CCn1c(S)nnc1-c1ccc([N+](=O)[O-])o1 [Compound 130]
[1]
  MIC E coli MIC2: >64 µg/mL
[2]
  MIC E faecalis MIC2: 64 µg/mL (≈ 254 µM)
[8]
  MIC E coli (ImpA) MIC9: 64 µg/mL (≈ 254 µM)
[3]
  MIC M. catarrhalis MIC2: 4 µg/mL (≈ 15.9 µM)
[4]
  MIC S pneumoniae MIC6: 16 µg/mL (≈ 63.4 µM)
[5]
  MIC S cerevisiae MIC7: >64 µg/mL
[6]
  MIC H influenzae MIC4: 32 µg/mL (≈ 127 µM)
[7]
  MIC S aureus MIC2: >64 µg/mL

## CCCCn1c(S)nnc1-c1ccc([N+](=O)[O-])o1 [Compound 133]
[1]
  MIC E coli MIC2: >64 µg/mL
[2]
  MIC E faecalis MIC2: >64 µg/mL
[8]
  MIC E coli (ImpA) MIC9: 64 µg/mL (≈ 239 µM)
[3]
  MIC M. catarrhalis MIC2: 32 µg/mL (≈ 119 µM)
[4]
  MIC S pneumoniae MIC6: 64 µg/mL (≈ 239 µM)
[5]
  MIC S cerevisiae MIC7: 64 µg/mL (≈ 239 µM)
[6]
  MIC H influenzae MIC4: 32 µg/mL (≈ 119 µM)
[7]
  MIC S aureus MIC2: 64 µg/mL (≈ 239 µM)

## O=[N+]([O-])c1ccc(-c2nnc(S)n2-c2ccccc2)o1 [Compound 134]
[2]
  MIC E faecalis MIC2: 64 µg/mL (≈ 222 µM)
[8]
  MIC E coli (ImpA) MIC9: 2 µg/mL (≈ 6.94 µM)
[3]
  MIC M. catarrhalis MIC2: 0.25 µg/mL (≈ 0.867 µM)
[4]
  MIC S pneumoniae MIC6: 8 µg/mL (≈ 27.8 µM)
[5]
  MIC S cerevisiae MIC7: >64 µg/mL
[6]
  MIC H influenzae MIC4: 8 µg/mL (≈ 27.8 µM)
[7]
  MIC S aureus MIC2: 2 µg/mL (≈ 6.94 µM)

## O=[N+]([O-])c1ccc(-c2nnc(S)n2Cc2ccccc2)o1 [Compound 135]
[1]
  MIC E coli MIC2: >64 µg/mL
[2]
  MIC E faecalis MIC2: 16 µg/mL (≈ 52.9 µM)
[8]
  MIC E coli (ImpA) MIC9: 32 µg/mL (≈ 106 µM)
[3]
  MIC M. catarrhalis MIC2: 1 µg/mL (≈ 3.31 µM)
[4]
  MIC S pneumoniae MIC6: 8 µg/mL (≈ 26.5 µM)
[5]
  MIC S cerevisiae MIC7: >64 µg/mL
[6]
  MIC H influenzae MIC4: 64 µg/mL (≈ 212 µM)
[7]
  MIC S aureus MIC2: 32 µg/mL (≈ 106 µM)

## O=[N+]([O-])c1ccc(-c2nnc(S)n2-c2ccc(F)cc2)o1 [Compound 136]
[1]
  MIC E coli MIC2: >64 µg/mL
[2]
  MIC E faecalis MIC2: 64 µg/mL (≈ 209 µM)
[8]
  MIC E coli (ImpA) MIC9: 16 µg/mL (≈ 52.2 µM)
[3]
  MIC M. catarrhalis MIC2: 4 µg/mL (≈ 13.1 µM)
[4]
  MIC S pneumoniae MIC6: 8 µg/mL (≈ 26.1 µM)
[5]
  MIC S cerevisiae MIC7: 64 µg/mL (≈ 209 µM)
[6]
  MIC H influenzae MIC4: 16 µg/mL (≈ 52.2 µM)
[7]
  MIC S aureus MIC2: 32 µg/mL (≈ 104 µM)

## O=[N+]([O-])c1ccc(-c2nnc(S)n2C2CCCCC2)o1 [Compound 137]
[1]
  MIC E coli MIC2: >64 µg/mL
[2]
  MIC E faecalis MIC2: 32 µg/mL (≈ 109 µM)
[8]
  MIC E coli (ImpA) MIC9: 32 µg/mL (≈ 109 µM)
[3]
  MIC M. catarrhalis MIC2: 1 µg/mL (≈ 3.4 µM)
[4]
  MIC S pneumoniae MIC6: 8 µg/mL (≈ 27.2 µM)
[5]
  MIC S cerevisiae MIC7: >64 µg/mL
[6]
  MIC H influenzae MIC4: 16 µg/mL (≈ 54.4 µM)
[7]
  MIC S aureus MIC2: >64 µg/mL

## O=[N+]([O-])c1ccc(-c2nnc(S)n2-c2ccc(I)cc2)o1 [Compound 138]
[1]
  MIC E coli MIC2: >64 µg/mL
[2]
  MIC E faecalis MIC2: 1 µg/mL (≈ 2.41 µM)
[8]
  MIC E coli (ImpA) MIC9: 0.25 µg/mL (≈ 0.604 µM)
[3]
  MIC M. catarrhalis MIC2: <0.12 µg/mL
[5]
  MIC S cerevisiae MIC7: 16 µg/mL (≈ 38.6 µM)
[6]
  MIC H influenzae MIC4: 8 µg/mL (≈ 19.3 µM)
[7]
  MIC S aureus MIC2: 0.5 µg/mL (≈ 1.21 µM)

## O=[N+]([O-])c1ccc(-c2nnc(S)n2-c2ccc(Cl)cc2)o1 [Compound 139, 4-(4-Chlorophenyl)-5-(5-nitrofuranyl)-4H-1,2,4-triazol-3-thiol]
[1]
  MIC: > 64 µg/mL
[2]
  MIC: 2 µg/mL (≈ 6.2 µM)
[8]
  MIC: < 0.12 µg/mL
[3]
  MIC: < 0.12 µg/mL
[4]
  MIC: 2 µg/mL (≈ 6.2 µM)
[5]
  MIC: 32 µg/mL (≈ 99.2 µM)
[6]
  MIC: 2 µg/mL (≈ 6.2 µM)
[7]
  MIC: 0.25 µg/mL (≈ 0.775 µM)

## O=[N+]([O-])c1ccc(-c2nnc(S)n2-c2ccc(Br)cc2)o1 [Compound 141]
[1]
  MIC E coli MIC2: >64 µg/mL
[2]
  MIC E faecalis MIC2: 2 µg/mL (≈ 5.45 µM)
[8]
  MIC E coli (ImpA) MIC9: <0.12 µg/mL
[3]
  MIC M. catarrhalis MIC2: 0.125 µg/mL (≈ 0.34 µM)
[4]
  MIC S pneumoniae MIC6: 2 µg/mL (≈ 5.45 µM)
[5]
  MIC S cerevisiae MIC7: 64 µg/mL (≈ 174 µM)
[6]
  MIC H influenzae MIC4: 8 µg/mL (≈ 21.8 µM)
[7]
  MIC S aureus MIC2: 0.25 µg/mL (≈ 0.681 µM)

## O=[N+]([O-])c1ccc(-c2nnc(S)n2-c2ccc(Br)c(Cl)c2)o1 [Compound 142]
[1]
  MIC E coli MIC2: >64 µg/mL
[2]
  MIC E faecalis MIC2: 1 µg/mL (≈ 2.49 µM)
[8]
  MIC E coli (ImpA) MIC9: <0.12 µg/mL
[3]
  MIC M. catarrhalis MIC2: <0.12 µg/mL
[4]
  MIC S pneumoniae MIC6: 2 µg/mL (≈ 4.98 µM)
[5]
  MIC S cerevisiae MIC7: 64 µg/mL (≈ 159 µM)
[6]
  MIC H influenzae MIC4: 8 µg/mL (≈ 19.9 µM)
[7]
  MIC S aureus MIC2: <0.12 µg/mL
